Results published in US20260234180A1, “AMINO ACID DERIVATIVE, PREPARATION METHOD THEREFOR, AND PHARMACEUTICAL COMPOSITION FOR TREATING HEPATITIS, COMPRISING SAME” (priority 2021, published 2026).

Target: T1, NTCP (Na+ taurocholate cotransporting peptide), HepG2-hNTCP-C4 cell line (Homo sapiens, UniProt Q14973)
T1 construct: expressed in transfected cells; host or cells: HepG2-hNTCP-C4 (HepG2 cells expressing human NTCP)
T1 sequence (Q14973 1-349): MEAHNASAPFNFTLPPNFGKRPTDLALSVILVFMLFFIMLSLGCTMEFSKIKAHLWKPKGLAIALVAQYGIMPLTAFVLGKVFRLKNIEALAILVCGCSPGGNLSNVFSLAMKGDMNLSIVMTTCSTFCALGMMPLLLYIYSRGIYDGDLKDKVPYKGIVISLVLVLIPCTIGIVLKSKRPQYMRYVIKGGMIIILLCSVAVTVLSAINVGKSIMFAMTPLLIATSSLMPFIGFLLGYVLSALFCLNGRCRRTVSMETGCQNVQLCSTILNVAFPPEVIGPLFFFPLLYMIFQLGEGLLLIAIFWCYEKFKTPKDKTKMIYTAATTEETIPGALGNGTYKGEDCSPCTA
Test: Inhibition of binding between FITC-labelled PreS1 and NTCP expressing cell line, flow cytometry
Settings: for relative fluorescence intensity in comparison with the parent bile acid Comparative Example: vs Comparative Example 2 (UDCA), 5 (DCA) or 6 (CDCA), method as Experimental Example 1-1; for ability to inhibit the binding between PreS1 and NTCP expressing cell lines (bile acid series): compound 50 µM
Method: HepG2-hNTCP-C4 cell line, a cell line expressing NTCP, was seeded in a 6 well plate at a density of 2×10^5/well and incubated at 4° C. for 30 minutes when the confluency reached 80% after overnight incubation for 2 days. Thereafter, 20 nM PreS1 (Myr-GTNL […]-Lys(FITC) (SEQ ID NO: 1)) and the compounds in Example 1, Examples 38 to 56 or the compound in Comparative Example 1 were treated by diluting in culture media at 4° C. at a concentration of 50 µM respectively, and the media was suctioned after 2 hours, followed by washing 3 times with 4° C. PBS. In order to take the cells off from the plate, 500 μl of 0.5 mM EDTA PBS solution was treated, and then incubation was performed at 37° C. for 15 minutes to check whether the cells fell off through an optical microscope. After taking off the cells by pipetting, the cells were collected in a 1.5 ml tube and centrifuged (4000 rpm, 4° C., 3 min). After suctioning the supernatant, the pellet was washed 3 times with 4° C. PBS, and then green fluorescence was measured via flow cytometry. In this case, taurocholic acid (TCA), a compound known as a substrate of NTCP to reduce the entry of HBV or HDV, was used as a positive control group.
In the graph at the top of FIG. 1, black (1) and red (2) indicate a negative control group with no treatment and an HBV-induced group (HBV preS1) solely treated with PreS1, respectively. Blue (HBV preS1+HBV entry inhibitor) (3) is the fluorescence value for each of Examples or Comparative Examples, evaluated that the closer to the negative control group, the more inhibited the binding between PreS1 and the NTCP cell line.
The experimental method was the same as in the Experimental Example 1-1, and 20 nM PreS1 and each compound were treated at 4 concentrations (0.2 μM, 2 μM, 10 μM, 50 μM).
With an expectation that there is a structure-activity relationship among compounds composed of bile acid and amino acids, for each of bile acids in Comparative Example 1 (lithocholic acid, LCA), Comparative Example 2 (ursodeoxycholic acid, UDCA), Comparative Example 3 (cholic acid, CA), Comparative Example 4 (hyodeoxycholic acid, HDCA), Comparative Example 5 (deoxycholic acid, DCA), and Comparative Example 6 (chenodeoxycholic acid, CDCA), an evaluation experiment was conducted on an ability to inhibit the binding between PreS1 and NTCP expressing cell lines, and also for Examples 1 (LCA-Ile) and Example 44 (LCA-Val) as well as the compounds in Example 2 (UDCA-Ile), Example 3 (UDCA-Val), Example 6 (CA-Ile), Example 7 (CA-Val), Example 8 (HDCA-Ile), Example 9 (HDCA-Val), Example 10 (DCA-Ile), Example 11 (DCA-Val), Example 14 (CDCA-Ile), and Example 15 (CDCA-Val) in which bile acid parts (lithocholic acid) of Example 1 (LCA-Ile) and Example 44 (LCA-Val) were substituted with other types of bile acids in Comparative Examples 2 to 6, an evaluation experiment was conducted on an ability to inhibit the binding between PreS1 and NTCP expressing cell lines. The experimental method was the same as in the Experimental Example 1-1, and 18 compounds in the Comparative Examples 1 to 6, Examples 1 to 3, Examples 6 to 11, Examples 14 to 15, and Example 44 were treated at a concentration of 50 µM along with 20 nM PreS1.
In FIG. 9, an evaluation experiment was conducted to check a degree of inhibiting the binding between PreS1 and NTCP expressing cell lines for compounds in Examples 4 to 5, Examples 12 to 13, Examples 16 to 17, and Comparative Examples 2 (ursodeoxycholic acid, UDCA), Comparative Examples 5 (deoxycholic acid, DCA), and Comparative Examples 6 (chenodeoxycholic acid, CDCA) according to the present disclosure. The experimental method was the same as the Experimental Example 1-1.
In the Experimental Examples 1-4, it was determined whether there is additionally concentration dependence for Example 4 (UDCA-Trp), a compound with good inhibitory ability. […]

[1] = compared to the HBV-induced group (PreS1-FITC) solely treated with PreS1

| SMILES | relative fluorescence intensity in comparison with the parent bile acid Comparative Example | ability to inhibit the binding between PreS1 and NTCP expressing cell lines (bile acid series) (20 nM PreS1) | also measured |
| --- | --- | --- | --- |
| C[C@H](CCC(=O)N[C@@H](Cc1c[nH]c2ccccc12)C(=O)O)[C@H]1CC[C@H]2[C@@H]3[C@@H](O)C[C@@H]4C[C@H](O)CC[C@]4(C)[C@H]3CC[C@]12C [Example 4, (S)-2-((R)-4-((3R,5S,7S,8R,9S,10S,13R,14S,17R)-3,7-dihydroxy-10,13-dimethyl-hexadecahydro-1H-cyclopenta[a]phenanthren-17-yl)pentanamido)-3-(1H-indol-3-yl)propanoic acid] | low |  | effect of inhibiting the binding between PreS1 and NTCP expressing cell lines by treatment concentration (2 μM, 10 μM, 20 μM, 50 μM, 20 nM PreS1): concentration dependent; difference in degree of competitive inhibition versus Comparative Example 2 (UDCA) [1]: about 2 times |
| C[C@H](CCC(=O)N[C@@H](Cc1ccc(O)cc1)C(=O)O)[C@H]1CC[C@H]2[C@@H]3[C@@H](O)C[C@@H]4C[C@H](O)CC[C@]4(C)[C@H]3CC[C@]12C [Example 5, (S)-2-((R)-4-((3R,5S,7S,8R,9S,10S,13R,14S,17R)-3,7-dihydroxy-10,13-dimethyl-hexadecahydro-1H-cyclopenta[a]phenanthren-17-yl)pentanamido)-3-(4-hydroxyphenyl)propanoic acid] | low |  | difference in degree of competitive inhibition versus Comparative Example 2 (UDCA) [1]: about 2 times |
| CC[C@@H](C)[C@H](NC(=O)CC[C@@H](C)[C@H]1CC[C@H]2[C@@H]3C[C@H](O)[C@@H]4C[C@H](O)CC[C@]4(C)[C@H]3CC[C@]12C)C(=O)O [Example 8, (2S,3R)-2-((R)-4-((3R,5R,6S,8S,9S,10R,13R,14S,17R)-3,6-dihydroxy-10,13-dimethyl-hexadecahydro-1H-cyclopenta[a]phenanthren-17-yl)pentanamido)-3-methylpentanoic acid] |  | relatively excellent |  |
| CC(C)[C@H](NC(=O)CC[C@@H](C)[C@H]1CC[C@H]2[C@@H]3C[C@H](O)[C@@H]4C[C@H](O)CC[C@]4(C)[C@H]3CC[C@]12C)C(=O)O [Example 9, (S)-2-((R)-4-((3R,5R,6S,8S,9S,10R,13R,14S,17R)-3,6-dihydroxy-10,13-dimethyl-hexadecahydro-1H-cyclopenta[a]phenanthren-17-yl)pentanamido)-3-methylbutanoic acid] |  | relatively excellent |  |
| C[C@H](CCC(=O)N[C@@H](Cc1c[nH]c2ccccc12)C(=O)O)[C@H]1CC[C@H]2[C@@H]3CC[C@@H]4C[C@H](O)CC[C@]4(C)[C@H]3C[C@H](O)[C@]12C [Example 12, (S)-2-((R)-4-((3R,5R,8R,9S,10S,12S,13R,14S,17R)-3,12-dihydroxy-10,13-dimethyl-hexadecahydro-1H-cyclopenta[a]phenanthren-17-yl)pentanamido)-3-(1H-indol-3-yl)propanoic acid] | the same or lower |  | difference in degree of competitive inhibition versus the parent bile acid Comparative Example (compared to the HBV-induced group (PreS1-FITC) solely treated with PreS1, vs Comparative Example 5 or 6): 11.6% |
| C[C@H](CCC(=O)N[C@@H](Cc1ccc(O)cc1)C(=O)O)[C@H]1CC[C@H]2[C@@H]3CC[C@@H]4C[C@H](O)CC[C@]4(C)[C@H]3C[C@H](O)[C@]12C [Example 13, (S)-2-((R)-4-((3R,5R,8R,9S,10S,12S,13R,14S,17R)-3,12-dihydroxy-10,13-dimethyl-hexadecahydro-1H-cyclopenta[a]phenanthren-17-yl)pentanamido)-3-(4-hydroxyphenyl)propanoic acid] | the same or lower |  |  |
| CC[C@@H](C)[C@H](NC(=O)CC[C@@H](C)[C@H]1CC[C@H]2[C@@H]3[C@H](O)C[C@@H]4C[C@H](O)CC[C@]4(C)[C@H]3CC[C@]12C)C(=O)O [Example 14, (2S,3R)-2-((R)-4-((3R,5S,7R,8R,9S,10S,13R,14S,17R)-3,7-dihydroxy-10,13-dimethyl-hexadecahydro-1H-cyclopenta[a]phenanthren-17-yl)pentanamido)-3-methylpentanoic acid] |  | relatively excellent |  |
